{"source": "ChEMBL document CHEMBL1201862", "about": "“PubChem BioAssay data set” (2004)", "key": {"[1]": {"experiment": "NIH-3T3 fibroblast cytotoxicity, dose response, cytotoxicity control, cell-based, fluorescence, Alamar Blue, secondary assay (AID 2327);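 further: NIH-3T3 mouse fibroblasts cultured with fluconazole at 8 µg/mL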", "format": "functional"}, "[2]": {"experiment": "inhibitors of SNCA 5'UTR-driven reporter translation, confirmation, H4 neuroglioma cells, luminescence (AID 1988)", "format": "functional, cell-based"}, "[3]": {"experiment": "Luminescence Cell-Based Dose Retest to Confirm Inhibitors of Cancer Stem Cells. [Related pubchem assays (depositor defined):AID2717, AID2721]", "format": "functional", "details": "Homo sapiens"}, "[4]": {"molecular_target": "T1, Exodeoxyribonuclease V (Escherichia coli (strain K12), UniProt P04993+P07648+P08394)", "T1 sequence (P04993 whole entry)": "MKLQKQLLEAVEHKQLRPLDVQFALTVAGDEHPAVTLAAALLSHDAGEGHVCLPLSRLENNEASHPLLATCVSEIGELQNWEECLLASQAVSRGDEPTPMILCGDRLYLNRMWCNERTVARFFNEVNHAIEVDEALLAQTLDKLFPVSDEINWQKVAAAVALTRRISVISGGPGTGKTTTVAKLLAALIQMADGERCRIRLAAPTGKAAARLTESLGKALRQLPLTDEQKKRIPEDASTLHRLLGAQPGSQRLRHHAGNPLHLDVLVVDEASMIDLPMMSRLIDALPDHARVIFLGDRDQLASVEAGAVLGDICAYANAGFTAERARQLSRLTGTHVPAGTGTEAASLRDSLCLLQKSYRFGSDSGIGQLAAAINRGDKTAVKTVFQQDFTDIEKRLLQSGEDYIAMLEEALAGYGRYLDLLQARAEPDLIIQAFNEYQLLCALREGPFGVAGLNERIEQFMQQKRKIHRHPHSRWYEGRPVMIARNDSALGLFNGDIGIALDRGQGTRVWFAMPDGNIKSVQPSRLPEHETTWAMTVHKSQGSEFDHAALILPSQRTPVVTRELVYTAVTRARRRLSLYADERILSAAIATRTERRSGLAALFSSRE", "T1 sequence (P07648 whole entry)": "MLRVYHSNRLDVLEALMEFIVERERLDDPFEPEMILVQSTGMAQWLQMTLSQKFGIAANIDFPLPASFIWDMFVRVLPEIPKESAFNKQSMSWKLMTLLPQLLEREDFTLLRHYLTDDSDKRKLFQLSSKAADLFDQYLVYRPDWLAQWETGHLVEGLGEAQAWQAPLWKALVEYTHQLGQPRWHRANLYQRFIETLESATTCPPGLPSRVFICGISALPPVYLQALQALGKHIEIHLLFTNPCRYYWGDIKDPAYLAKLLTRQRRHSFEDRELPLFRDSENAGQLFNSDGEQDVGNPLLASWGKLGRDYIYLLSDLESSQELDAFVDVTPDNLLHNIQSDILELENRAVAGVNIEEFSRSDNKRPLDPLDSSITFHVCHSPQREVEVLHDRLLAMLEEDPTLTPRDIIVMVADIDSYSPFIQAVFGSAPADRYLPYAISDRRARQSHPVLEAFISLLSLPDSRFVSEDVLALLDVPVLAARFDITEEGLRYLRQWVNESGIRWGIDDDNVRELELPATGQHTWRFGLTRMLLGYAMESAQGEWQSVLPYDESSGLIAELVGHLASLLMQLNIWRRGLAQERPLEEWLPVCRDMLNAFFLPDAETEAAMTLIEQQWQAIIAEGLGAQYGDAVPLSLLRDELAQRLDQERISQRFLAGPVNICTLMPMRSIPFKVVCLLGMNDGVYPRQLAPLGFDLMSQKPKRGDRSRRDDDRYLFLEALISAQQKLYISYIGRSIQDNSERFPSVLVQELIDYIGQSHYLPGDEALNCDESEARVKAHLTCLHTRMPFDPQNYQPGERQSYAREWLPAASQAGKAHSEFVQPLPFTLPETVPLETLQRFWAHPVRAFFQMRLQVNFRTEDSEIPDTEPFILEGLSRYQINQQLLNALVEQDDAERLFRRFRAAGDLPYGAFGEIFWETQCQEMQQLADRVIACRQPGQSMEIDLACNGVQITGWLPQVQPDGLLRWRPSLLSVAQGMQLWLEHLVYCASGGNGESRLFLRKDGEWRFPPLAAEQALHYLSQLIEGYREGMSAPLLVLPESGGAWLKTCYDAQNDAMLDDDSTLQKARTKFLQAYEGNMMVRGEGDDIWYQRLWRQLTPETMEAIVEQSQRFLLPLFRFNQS", "T1 sequence (P08394 whole entry)": "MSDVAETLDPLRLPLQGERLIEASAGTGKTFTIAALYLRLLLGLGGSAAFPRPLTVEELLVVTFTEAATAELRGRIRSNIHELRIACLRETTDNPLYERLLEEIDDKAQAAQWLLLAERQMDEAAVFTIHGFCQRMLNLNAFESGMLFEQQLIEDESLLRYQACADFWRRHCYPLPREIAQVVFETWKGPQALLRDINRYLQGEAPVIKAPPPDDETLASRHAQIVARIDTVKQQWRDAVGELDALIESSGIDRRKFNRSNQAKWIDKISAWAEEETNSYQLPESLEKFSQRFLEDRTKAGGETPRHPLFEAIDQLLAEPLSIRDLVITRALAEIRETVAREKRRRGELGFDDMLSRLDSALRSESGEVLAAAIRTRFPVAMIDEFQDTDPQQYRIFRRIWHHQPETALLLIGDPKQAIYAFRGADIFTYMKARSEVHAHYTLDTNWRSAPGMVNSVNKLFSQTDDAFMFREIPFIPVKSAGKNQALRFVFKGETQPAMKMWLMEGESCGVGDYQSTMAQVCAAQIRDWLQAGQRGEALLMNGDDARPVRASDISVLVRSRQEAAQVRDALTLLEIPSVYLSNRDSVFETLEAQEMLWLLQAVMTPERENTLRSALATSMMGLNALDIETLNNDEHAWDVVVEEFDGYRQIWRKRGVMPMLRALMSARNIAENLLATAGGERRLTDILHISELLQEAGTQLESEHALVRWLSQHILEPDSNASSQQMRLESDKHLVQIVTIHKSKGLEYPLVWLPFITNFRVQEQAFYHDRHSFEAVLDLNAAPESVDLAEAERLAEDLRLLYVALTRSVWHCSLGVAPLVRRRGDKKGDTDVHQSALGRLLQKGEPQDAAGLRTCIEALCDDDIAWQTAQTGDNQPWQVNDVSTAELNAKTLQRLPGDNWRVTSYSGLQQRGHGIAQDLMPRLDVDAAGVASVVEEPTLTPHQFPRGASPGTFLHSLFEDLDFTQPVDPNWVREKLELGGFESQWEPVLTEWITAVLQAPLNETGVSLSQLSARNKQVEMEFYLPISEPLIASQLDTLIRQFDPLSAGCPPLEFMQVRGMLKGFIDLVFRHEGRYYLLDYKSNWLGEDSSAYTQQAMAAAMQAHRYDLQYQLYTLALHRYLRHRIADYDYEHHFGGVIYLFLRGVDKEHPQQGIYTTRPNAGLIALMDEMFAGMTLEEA", "experiment": "E. coli RecBCD inhibitors, dose response, counter-screen for AddAB inhibitor project, absorbance, V66 E. coli, mutant T4 phage (AID 492957)", "format": "functional, cell-based, Escherichia coli str. K-12 substr. MG1655"}, "[5]": {"system": "INS1", "experiment": "beta cell apoptosis inhibitors, cytokine rescue, dose response, luminescence, retest (AID 449756);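 further: cell death triggered by IL-1 beta plus TNF-alpha plus IFN-gamma mixture; protective hits raise ATP signal compared with cytokine alone wells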", "format": "functional, cell-based", "details": "Rattus norvegicus"}, "[6]": {"experiment": "inhibitors of firefly luciferase expression or activity, dose response, H4 neuroglioma cells, luminescence (AID 1990)", "format": "functional, cell-based"}, "[7]": {"experiment": "Counterscreen for AddAB inhibitors: absorbance-based bacterial cell-based high throughput dose response assay for inhibitors of bacterial viability. [Related pubchem assays (depositor defined):AID435030, AID449728, AID449731, AID488942, AID488955, AID488956]", "format": "functional"}, "[8]": {"experiment": "C. albicans growth with fluconazole, confirmation, fluorescence, retest (AID 2467)", "format": "functional, cell-based"}, "[9]": {"experiment": "human group III sPLA2 inhibitors, dose response, biochemical, QFRET, IC50 (AID 743457);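 further: green fluorescence rise as the enzyme cleaves BODIPY PC-A2 in liposomes; potency for inhibition of the enzyme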"}, "[10]": {"experiment": "Luminescence Cell-Based Dose Response HTS to Identify Inhibitors of 5'UTR Stem-Loop Driven Prion Protein mRNA Translation in H4 Neuroglioblastoma Cells. [Related pubchem assays: 1827 (Project Summary), 1813 (Primary HTS)]", "format": "functional"}, "[11]": {"experiment": "control 3'UTR Renilla luciferase suppression, dose response, counter-screen for Shn3 inhibitor project, cell-based, Clone20-Shn3RL, cherry-picked (AID 624133)", "format": "functional"}, "[12]": {"experiment": "Shn3 3'UTR reporter inhibitors, dose response, cell-based, Clone20 osteoblasts, firefly luciferase, cherry-picked (AID 624132)", "format": "functional"}, "[13]": {"experiment": "inhibitors of control Renilla luciferase reporter, dose response, counter-screen for Shn3 3'UTR targeting project, Clone20-Shn3RL cells, dual-Glo, cherry-pick, set 2 (AID 720724)", "format": "functional, cell-based", "details": "Dual-Go Shn3RL"}, "[14]": {"molecular_target": "Protein Wnt-3a (Mus musculus, UniProt P27467)", "sequence (P27467 whole entry)": "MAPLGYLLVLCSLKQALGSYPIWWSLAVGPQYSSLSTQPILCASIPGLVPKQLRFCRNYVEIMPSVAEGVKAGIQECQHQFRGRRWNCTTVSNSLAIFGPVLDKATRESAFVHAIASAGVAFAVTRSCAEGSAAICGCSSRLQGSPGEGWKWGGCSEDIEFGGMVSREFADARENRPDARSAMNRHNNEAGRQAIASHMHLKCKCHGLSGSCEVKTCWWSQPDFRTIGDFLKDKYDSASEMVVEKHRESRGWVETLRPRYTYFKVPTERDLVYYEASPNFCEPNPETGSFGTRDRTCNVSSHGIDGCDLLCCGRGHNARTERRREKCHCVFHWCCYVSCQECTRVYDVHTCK", "experiment": "Wnt3a-driven reporter signaling inhibition, dose response, selectivity assay for Gli-SUFU antagonist project, Wnt-LIGHT cells, luminescence (AID 651570);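 further: Wnt-LIGHT reporter cells stimulated with conditioned medium from Wnt3a-producing cells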", "format": "functional", "details": "read-out: IC50_Mean"}, "[15]": {"experiment": "reduction of Shn3 3'UTR firefly luciferase signal, dose response, Schnurri-3 inhibitor project, cell-based, Clone20 osteoblasts, cherry-pick, set 2 (AID 720490)", "format": "functional"}, "[16]": {"experiment": "HepG2 cell cytotoxicity, dose response, cytotoxicity control for Shn3 inhibitor project, CellTiter-Glo, cherry-picked (AID 624134)", "format": "functional, cell-based"}, "[17]": {"experiment": "MITF Orthogonal Assay: SK-MEL-5 CTG Assay Measured in Cell-Based System Using Plate Reader - 2084-02_Inhibitor_Dose_DryPowder_Activity_Set7.", "format": "functional"}, "[18]": {"experiment": "MITF: Counter assay: A375 proliferation Measured in Cell-Based System Using Plate Reader - 2084-03_Inhibitor_Dose_DryPowder_Activity_Set8.", "format": "functional", "details": "A-375"}}, "note": "Calls of active or inactive are those of the source."}
{"smiles": "Cc1onc(-c2c(Cl)cccc2Cl)c1C(=O)NN=C(N)COc1ccc(Cl)cc1", "values": [{"measurement": "EC50", "setting": "[1]", "result": "> 150 µM (inactive)"}, {"measurement": "EC50", "setting": "[2]", "result": "> 120 µM (not active)"}, {"measurement": "AC50", "setting": "[3]", "result": "3.07 µM (active)"}, {"measurement": "IC50", "setting": "[4]", "result": "> 119 µM (inactive)"}, {"measurement": "AC50", "setting": "[5]", "result": "3.71 µM (active)"}, {"measurement": "EC50", "setting": "[6]", "result": "> 120 µM (not active)"}, {"measurement": "IC50", "setting": "[7]", "result": "> 119 µM (inactive)"}, {"measurement": "EC50", "setting": "[8]", "result": "3.09 µM (active)"}, {"measurement": "IC50", "setting": "[9]", "result": "> 122 µM (inactive)"}, {"measurement": "EC50", "setting": "[10]", "result": "12 µM (active)"}]}
{"smiles": "CC(Sc1nc2ccccc2c(=O)n1C)C(=O)N(C)C1CCCCC1", "note": "(stereo not drawn)", "values": [{"measurement": "AC50", "setting": "[11]", "result": "13.7 µM (active)"}, {"measurement": "AC50", "setting": "[12]", "result": "2.27 µM (active)"}, {"measurement": "AC50", "setting": "[13]", "result": "49.9 µM (active)"}, {"measurement": "IC50", "setting": "[14]", "result": "1.92 µM (active)"}, {"measurement": "AC50", "setting": "[15]", "result": "2.03 µM (active)"}, {"measurement": "AC50", "setting": "[16]", "result": "38.2 µM (active)"}]}
{"smiles": "Cc1ccc(NC2=CC(=O)c3ccccc3C2=O)cc1C", "values": [{"measurement": "AC50", "setting": "[17]", "result": "0.904 µM (active)"}, {"measurement": "AC50", "setting": "[18]", "result": "> 70 µM (inactive)"}]}
